{"source": "patent US20240408071A1", "about": "“NOVEL COMBINATION OF SEROTONIN RECEPTOR (5-HTR2B) ANTAGONIST AND AN IMMUNOMODULATOR AND CHEMOTHERAPEUTIC DRUGS FOR INHIBITION OF CANCER” (NATIONAL CENTRE FOR CELL SCIENCE, priority 2021, published 2024)", "key": {"[1]": {"details": "compared with other 5-HTR2B antagonists; cited from earlier work"}, "MC38 tumor": {"tested_on": "MC38 tumor", "assay": "Adoptive transfer of lymph node cells into NRG mice bearing MC38 and B16F10 tumors: MC38 flank", "assay_type": "in vivo", "details": "donor mice treated 10 days; tumor-draining lymph node cells; MC38 flank (FIG. 11B)", "experimental": "FIG. 11 depicts the effect of 5-HTR antagonists on the antigen-specific CTL response MC38 tumor model in mice: (A) Representative experimental plan of the adoptive transfer experiment where NRG mice. In brief, NRG mice were inoculated with MC38 on one flank and B16F10 cells on the other. These mice received total lymph node cells from naïve C57BL/6J mice or MC38 tumor-bearing control or RS-127445 treated mice. (B) Tumor volume data from the above-described experiment was measured and plotted (C) Immunocytochemistry data showing expression of H2-Kb-[…]^+ (red) on MC38 cells transfected with pCL-neo-OVA plasmid on the right side and MC38 cells without transfection. DAPI is used as a counterstain. (D-E) C7BL/6J mice were inoculated with an MC38-ova cell line and treated with RS-127445 or left untreated. After 10 days of such treatment, Total lymph node cells were harvested tagged with CFSE, and cultured in the presence of ovalbumin protein (50 μg/ml) for 5 days. After 5 days cells were checked for CFSE expression by flow cytometry to check proliferation. Here is the data (D) showing the CFSE in CD8^+ cells. The statistical data of the total percentage of CFSE^− CD8 T cells corresponding with the percentage of proliferated CD8 T cells were plotted. […]"}}}
{"compound": "CC(C)c1cc(-c2ccc(F)c3ccccc23)nc(N)n1", "note": "[RS-127445]", "values": [{"measurement": "bioavailability", "setting": "[1]", "value": "higher bioavailability"}, {"measurement": "MC38 tumor growth after transfer of antagonist primed total immune cells", "setting": "MC38 tumor", "value": "able to control MC38 tumor growth"}]}
